Reference: patent EP1935986B1, “Luminogenic and fluorogenic compounds and methods to detect molecules or conditions” (priority 2005, dated 2006)

Assays:
[1] = tested on: thermostable luciferase (Luc 146-1H2); assay: Thermostable luciferase reaction with luciferin derivatives: light readings; assay type: biochemical
Method: (§1) This stock was used to produce enzyme stock solution having of 200 µg/ml enzyme solution in 1 mg/ml BSA, 200 mM HEPES buffer, pH 8.0, 20 mM MgCl2.
(§2) Solutions were made using a 1 M DTT solution, pH adjusted to 8.0, a 20 mM Coenzyme A solution in water (both described in examples above), a 100 mM ATP solution and water to create the following solutions: Sol'A, 100 µM ATP; Sol'B, 100 µM ATP, 4 mM Coenzyme A; Sol'n C, 100 µM ATP, 400 mM DTT, and; Sol'n D, 100 µM ATP, 4 mM Coenzyme A and 400 mM DTT.
The following reactions were prepared (Table 47) Table 47
(§3) After assembly, the reactions were initiated by addition of 25 µl of the thermostable luciferase stock solution above and mixing the tube contents. A 50 µl sample was immediately removed and placed in a luminometer tube and the light read and the tube then replaced in a tube rack at room temperature. While the light reading was being taken, a 5 µl sample of the remaining reaction (which was kept at room temperature) was diluted into 495 µl of 50 mM BisTris, pH 6.5, 1 mg/ml BSA, 1 mM EDTA prechilled to 4°C and the tube mixed and placed on ice. The light produced by the samples in the luminometer tubes were re-read at 20, 40, 60, 90 and 120 minutes post enzyme addition. Additional 5 µl samples were taken and diluted as above at 60 and 120 minutes post enzyme addition. Once all these readings and samples were taken, 50 µl of the diluted samples was mixed with 50 µl of Steady Glo in luminometer tubes, the tubes incubated 10 minutes on ice then the light produced was read on a Turner TD 20/20 luminometer.

[2] = tested on: thermostable luciferase (Luc 146-1H2); assay: Residual thermostable luciferase activity after reaction with luciferin derivatives (Steady Glo); assay type: biochemical
Method: as §1, §2, §3

SMILES: O=C(O)[C@H]1CSC(c2nc3ccc(OCCCl)cc3s2)=N1 [L'in-CEE]
- light readings from the reaction samples ([1]; substrate 6.25 (L'in-BE: 6.26), + Co A & DTT, Time 0 min): 77.35
- light readings from the reaction samples ([1]; substrate 6.25 (L'in-BE: 6.26), + Co A & DTT, Time 20 min): 7.958
- light readings from the reaction samples ([1]; substrate 6.25 (L'in-BE: 6.26), + Co A & DTT, Time 40 min): 3.656
- light readings from the reaction samples ([1]; substrate 6.25 (L'in-BE: 6.26), + Co A & DTT, Time 60 min): 2.312
- light readings from the reaction samples ([1]; substrate 6.25 (L'in-BE: 6.26), + Co A & DTT, Time 90 min): 1.414
- light readings from the reaction samples ([1]; substrate 6.25 (L'in-BE: 6.26), + Co A & DTT, Time 120 min): 1.134
- light readings from the reaction samples ([1]; substrate 6.25 (L'in-BE: 6.26), + Co A, Time 0 min): 1829
- light readings from the reaction samples ([1]; substrate 6.25 (L'in-BE: 6.26), + Co A, Time 20 min): 114
- light readings from the reaction samples ([1]; substrate 6.25 (L'in-BE: 6.26), + Co A, Time 40 min): 57.82
- light readings from the reaction samples ([1]; substrate 6.25 (L'in-BE: 6.26), + Co A, Time 60 min): 37.53
- light readings from the reaction samples ([1]; substrate 6.25 (L'in-BE: 6.26), + Co A, Time 90 min): 24.66
- light readings from the reaction samples ([1]; substrate 6.25 (L'in-BE: 6.26), + Co A, Time 120 min): 17.02
- light readings from the reaction samples ([1]; substrate 6.25 (L'in-BE: 6.26), + DTT, Time 0 min): 72.52
- light readings from the reaction samples ([1]; substrate 6.25 (L'in-BE: 6.26), + DTT, Time 20 min): 5.903
- light readings from the reaction samples ([1]; substrate 6.25 (L'in-BE: 6.26), + DTT, Time 40 min): 3.073
- light readings from the reaction samples ([1]; substrate 6.25 (L'in-BE: 6.26), + DTT, Time 60 min): 2.089
- light readings from the reaction samples ([1]; substrate 6.25 (L'in-BE: 6.26), + DTT, Time 90 min): 1.431
- light readings from the reaction samples ([1]; substrate 6.25 (L'in-BE: 6.26), + DTT, Time 120 min): 1.125
- light readings from the reaction samples ([1]; substrate 6.25 (L'in-BE: 6.26), Alone, Time 0 min): 121
- light readings from the reaction samples ([1]; substrate 6.25 (L'in-BE: 6.26), Alone, Time 20 min): 5.884
- light readings from the reaction samples ([1]; substrate 6.25 (L'in-BE: 6.26), Alone, Time 40 min): 3.316
- light readings from the reaction samples ([1]; substrate 6.25 (L'in-BE: 6.26), Alone, Time 60 min): 2.352
- light readings from the reaction samples ([1]; substrate 6.25 (L'in-BE: 6.26), Alone, Time 90 min): 1.569
- light readings from the reaction samples ([1]; substrate 6.25 (L'in-BE: 6.26), Alone, Time 120 min): 1.154
- light readings from the reaction samples ([1]; substrate 25, + Co A & DTT, Time 0 min): 57.98
- light readings from the reaction samples ([1]; substrate 25, + Co A & DTT, Time 20 min): 5.721
- light readings from the reaction samples ([1]; substrate 25, + Co A & DTT, Time 40 min): 3.272
- light readings from the reaction samples ([1]; substrate 25, + Co A & DTT, Time 60 min): 2.192
- light readings from the reaction samples ([1]; substrate 25, + Co A & DTT, Time 90 min): 1.379
- light readings from the reaction samples ([1]; substrate 25, + Co A & DTT, Time 120 min): 1.174
- light readings from the reaction samples ([1]; substrate 25, + Co A, Time 0 min): 489.2
- light readings from the reaction samples ([1]; substrate 25, + Co A, Time 20 min): 45.45
- light readings from the reaction samples ([1]; substrate 25, + Co A, Time 40 min): 25.08
- light readings from the reaction samples ([1]; substrate 25, + Co A, Time 60 min): 16.96
- light readings from the reaction samples ([1]; substrate 25, + Co A, Time 90 min): 11.03
- light readings from the reaction samples ([1]; substrate 25, + Co A, Time 120 min): 7.309
- light readings from the reaction samples ([1]; substrate 25, + DTT, Time 0 min): 56.59
- light readings from the reaction samples ([1]; substrate 25, + DTT, Time 20 min): 3.761
- light readings from the reaction samples ([1]; substrate 25, + DTT, Time 40 min): 2.196
- light readings from the reaction samples ([1]; substrate 25, + DTT, Time 60 min): 1.668
- light readings from the reaction samples ([1]; substrate 25, + DTT, Time 90 min): 1.274
- light readings from the reaction samples ([1]; substrate 25, + DTT, Time 120 min): 1.157
- light readings from the reaction samples ([1]; substrate 25, Alone, Time 0 min): 59.87
- light readings from the reaction samples ([1]; substrate 25, Alone, Time 20 min): 3.176
- light readings from the reaction samples ([1]; substrate 25, Alone, Time 40 min): 1.919
- light readings from the reaction samples ([1]; substrate 25, Alone, Time 60 min): 1.305
- light readings from the reaction samples ([1]; substrate 25, Alone, Time 90 min): 1.178
- light readings from the reaction samples ([1]; substrate 25, Alone, Time 120 min): 1.03
- light readings from the reaction samples ([1]; substrate 100, + Co A & DTT, Time 0 min): 25.41
- light readings from the reaction samples ([1]; substrate 100, + Co A & DTT, Time 20 min): 3.278
- light readings from the reaction samples ([1]; substrate 100, + Co A & DTT, Time 40 min): 2.027
- light readings from the reaction samples ([1]; substrate 100, + Co A & DTT, Time 60 min): 1.666
- light readings from the reaction samples ([1]; substrate 100, + Co A & DTT, Time 90 min): 1.27
- light readings from the reaction samples ([1]; substrate 100, + Co A & DTT, Time 120 min): 1.157
- light readings from the reaction samples ([1]; substrate 100, + Co A, Time 0 min): 97.88
- light readings from the reaction samples ([1]; substrate 100, + Co A, Time 20 min): 10.3
- light readings from the reaction samples ([1]; substrate 100, + Co A, Time 40 min): 7.127
- light readings from the reaction samples ([1]; substrate 100, + Co A, Time 60 min): 5.562
- light readings from the reaction samples ([1]; substrate 100, + Co A, Time 90 min): 3.969
- light readings from the reaction samples ([1]; substrate 100, + Co A, Time 120 min): 2.845
- light readings from the reaction samples ([1]; substrate 100, + DTT, Time 0 min): 22.47
- light readings from the reaction samples ([1]; substrate 100, + DTT, Time 20 min): 2.233
- light readings from the reaction samples ([1]; substrate 100, + DTT, Time 40 min): 1.292
- light readings from the reaction samples ([1]; substrate 100, + DTT, Time 60 min): 1.164
- light readings from the reaction samples ([1]; substrate 100, + DTT, Time 90 min): 1.093
- light readings from the reaction samples ([1]; substrate 100, + DTT, Time 120 min): 0.958
- light readings from the reaction samples ([1]; substrate 100, Alone, Time 0 min): 20.46
- light readings from the reaction samples ([1]; substrate 100, Alone, Time 20 min): 1.18
- light readings from the reaction samples ([1]; substrate 100, Alone, Time 40 min): 0.868
- light readings from the reaction samples ([1]; substrate 100, Alone, Time 60 min): 0.788
- light readings from the reaction samples ([1]; substrate 100, Alone, Time 90 min): 0.627
- light readings from the reaction samples ([1]; substrate 100, Alone, Time 120 min): 0.544
- light values obtained upon addition of the diluted reaction samples into Steady Glo reagent ([2]; Substrate 6.25, + Co A & DTT, Time Sample Taken 0 min): 1836
- light values obtained upon addition of the diluted reaction samples into Steady Glo reagent ([2]; Substrate 6.25, + Co A & DTT, Time Sample Taken 60 min): 1625
- light values obtained upon addition of the diluted reaction samples into Steady Glo reagent ([2]; Substrate 6.25, + Co A & DTT, Time Sample Taken 120 min): 1622
- light values obtained upon addition of the diluted reaction samples into Steady Glo reagent ([2]; Substrate 6.25, + Co A, Time Sample Taken 0 min): 1647
- light values obtained upon addition of the diluted reaction samples into Steady Glo reagent ([2]; Substrate 6.25, + Co A, Time Sample Taken 60 min): 976.8
- light values obtained upon addition of the diluted reaction samples into Steady Glo reagent ([2]; Substrate 6.25, + Co A, Time Sample Taken 120 min): 921.4
- light values obtained upon addition of the diluted reaction samples into Steady Glo reagent ([2]; Substrate 6.25, + DTT, Time Sample Taken 0 min): 1631
- light values obtained upon addition of the diluted reaction samples into Steady Glo reagent ([2]; Substrate 6.25, + DTT, Time Sample Taken 60 min): 1544
- light values obtained upon addition of the diluted reaction samples into Steady Glo reagent ([2]; Substrate 6.25, + DTT, Time Sample Taken 120 min): 1695
- light values obtained upon addition of the diluted reaction samples into Steady Glo reagent ([2]; Substrate 6.25, Alone, Time Sample Taken 0 min): 1402
- light values obtained upon addition of the diluted reaction samples into Steady Glo reagent ([2]; Substrate 6.25, Alone, Time Sample Taken 60 min): 1158
- light values obtained upon addition of the diluted reaction samples into Steady Glo reagent ([2]; Substrate 6.25, Alone, Time Sample Taken 120 min): 1073
- light values obtained upon addition of the diluted reaction samples into Steady Glo reagent ([2]; Substrate 25, + Co A & DTT, Time Sample Taken 0 min): 529.6
- light values obtained upon addition of the diluted reaction samples into Steady Glo reagent ([2]; Substrate 25, + Co A & DTT, Time Sample Taken 60 min): 1268
- light values obtained upon addition of the diluted reaction samples into Steady Glo reagent ([2]; Substrate 25, + Co A & DTT, Time Sample Taken 120 min): 1329
- light values obtained upon addition of the diluted reaction samples into Steady Glo reagent ([2]; Substrate 25, + Co A, Time Sample Taken 0 min): 1547
- light values obtained upon addition of the diluted reaction samples into Steady Glo reagent ([2]; Substrate 25, + Co A, Time Sample Taken 60 min): 777.5
- light values obtained upon addition of the diluted reaction samples into Steady Glo reagent ([2]; Substrate 25, + Co A, Time Sample Taken 120 min): 588.7
- light values obtained upon addition of the diluted reaction samples into Steady Glo reagent ([2]; Substrate 25, + DTT, Time Sample Taken 0 min): 1116
- light values obtained upon addition of the diluted reaction samples into Steady Glo reagent ([2]; Substrate 25, + DTT, Time Sample Taken 60 min): 1372
- light values obtained upon addition of the diluted reaction samples into Steady Glo reagent ([2]; Substrate 25, + DTT, Time Sample Taken 120 min): 1393
- light values obtained upon addition of the diluted reaction samples into Steady Glo reagent ([2]; Substrate 25, Alone, Time Sample Taken 0 min): 1345
- light values obtained upon addition of the diluted reaction samples into Steady Glo reagent ([2]; Substrate 25, Alone, Time Sample Taken 60 min): 973.4
- light values obtained upon addition of the diluted reaction samples into Steady Glo reagent ([2]; Substrate 25, Alone, Time Sample Taken 120 min): 860.3
